One data set deals with T1, 5-HT2C receptor (Homo sapiens, UniProt P28335).
T1 sequence (P28335 33-458): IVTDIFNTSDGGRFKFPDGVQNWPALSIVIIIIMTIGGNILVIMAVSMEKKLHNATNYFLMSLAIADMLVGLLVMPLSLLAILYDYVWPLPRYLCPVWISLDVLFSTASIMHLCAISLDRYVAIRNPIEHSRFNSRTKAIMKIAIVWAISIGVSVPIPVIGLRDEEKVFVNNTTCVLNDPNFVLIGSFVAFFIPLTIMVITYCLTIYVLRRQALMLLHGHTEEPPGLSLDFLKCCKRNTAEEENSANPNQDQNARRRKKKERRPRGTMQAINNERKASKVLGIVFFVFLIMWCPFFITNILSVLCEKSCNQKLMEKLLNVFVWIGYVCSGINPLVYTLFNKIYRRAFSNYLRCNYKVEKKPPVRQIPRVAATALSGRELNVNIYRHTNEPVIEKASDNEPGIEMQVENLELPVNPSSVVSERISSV
The note with it: cited from earlier work.

Data set [1] has as its target T2, 5-HT2A (Homo sapiens, UniProt P28223). The note with it: background, cited from earlier work.
Target sequence in this assay (P28223 whole entry, species assumed): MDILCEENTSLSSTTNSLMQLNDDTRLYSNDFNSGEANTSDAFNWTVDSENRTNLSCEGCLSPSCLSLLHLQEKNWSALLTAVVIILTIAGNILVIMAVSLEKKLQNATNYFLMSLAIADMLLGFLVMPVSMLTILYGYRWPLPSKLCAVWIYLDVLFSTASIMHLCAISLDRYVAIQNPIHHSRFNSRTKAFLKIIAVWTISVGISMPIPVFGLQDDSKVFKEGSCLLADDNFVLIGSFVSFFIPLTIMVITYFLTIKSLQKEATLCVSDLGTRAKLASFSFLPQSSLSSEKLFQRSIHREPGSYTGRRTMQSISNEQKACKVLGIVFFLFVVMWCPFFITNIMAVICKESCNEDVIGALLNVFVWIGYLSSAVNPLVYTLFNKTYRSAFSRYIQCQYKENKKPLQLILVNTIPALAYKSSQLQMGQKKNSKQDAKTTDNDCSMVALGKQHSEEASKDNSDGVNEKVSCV
For data set [2] the following is noted: 10-60 mg/kg; cited from earlier work.
In another data set the target is 5-HT2B (Homo sapiens, UniProt P41595). The note with it: background, reported values; cited from earlier work.
The conditions of data set [3]: several animal models; cited from earlier work.
For data set [4] the following is noted: clinical trials, compared to the placebo group; cited from earlier work.
For data set [5], the target named is T2, 5-HT2A. Kind of data set: Calcium flux (FLIPR) assay, human 5-HT2A stably expressed in HEK-293 (Flp-In-293) cells. Particulars: read-out: 5-HT2A Emax Std. Error.
Target sequence in this assay (P28223 whole entry): as the sequence (P28223 whole entry, species assumed) above
For a further data set, the target named is T3, human 5-HT2C-INI (Homo sapiens, UniProt P28335).
T3 sequence (P28335 33-458): T1 sequence (P28335 33-458)
Briefly: Calcium flux (FLIPR) assay, human 5-HT2C-INI stably expressed in HEK-293 (Flp-In-293) cells. On the technique in general: A change in cytosolic calcium serves as a functional read-out for many receptors and channels.

Sequence of 5-HT2B (P41595 whole entry, species assumed): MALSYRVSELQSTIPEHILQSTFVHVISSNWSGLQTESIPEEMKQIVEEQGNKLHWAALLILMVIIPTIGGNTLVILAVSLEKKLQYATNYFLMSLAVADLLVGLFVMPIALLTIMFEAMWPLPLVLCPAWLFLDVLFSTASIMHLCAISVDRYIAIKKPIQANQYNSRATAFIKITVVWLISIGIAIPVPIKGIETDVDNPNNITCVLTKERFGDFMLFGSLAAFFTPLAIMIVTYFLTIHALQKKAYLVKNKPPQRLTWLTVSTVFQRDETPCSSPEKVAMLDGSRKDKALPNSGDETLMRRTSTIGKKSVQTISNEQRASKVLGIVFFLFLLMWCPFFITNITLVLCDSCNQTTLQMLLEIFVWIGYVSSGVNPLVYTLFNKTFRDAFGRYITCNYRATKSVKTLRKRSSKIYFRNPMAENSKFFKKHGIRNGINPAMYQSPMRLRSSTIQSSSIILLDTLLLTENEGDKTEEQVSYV

Turning to `Cc1cccc(C2CC2CN)c1` (stereo not shown), the “selectivity over 5-HT(2A)” value at 5-HT2C receptor (5-HT2C versus 5-HT2A) is given as 120 fold. For the same molecule, the “selectivity for 5-HT2C relative to 5-HT2B” value on 5-HT2C receptor (5-HT2C versus 5-HT2B) is listed as 14 fold. Further, the 50% effective concentration (EC50) is 4.8 nM at 5-HT2C receptor (background, reported values); 585 nM at 5-HT2A [1] (reported values); 65 nM at 5-HT2B. For the same molecule, in data set [2], the antidepressant-like effects result was “moderate antidepressant-like effects”.

With `c1cc2c3c(c1)[C@H]1CCC[C@H]1N3CCNC2` [WAY-163909], the “agonist activity at 5-HT2A” value at 5-HT2A [1] (reported) was “no agonist activity”. Moreover, the preclinical antipsychotic-like activity result in data set [3] is “good preclinical antipsychotic-like activity”. Moreover, on 5-HT2B, the “Emax at 5-HT2B” value is listed as 40%.

With `C[C@H]1CNCCc2ccc(Cl)cc21` [lorcaserin, reference compound], the “incidence of cardiac valve disorders” value in data set [4] was “higher incidence of cardiac valve disorders”. In addition, the maximum response (Emax) came to 68% on 5-HT2A [5] and 99% at human 5-HT2C-INI (read-out: 5-HT2C Emax Std. Error). Also, the “Emax, % 5-HT 5-HT2C” value on human 5-HT2C-INI (human 5-HT2C-INI in HEK-293 cells, FLIPR, normalized to 5-HT) is listed as “(99%) % 5-HT”.

As usually defined, the EC50 is the concentration at which the effect is half-maximal. For orientation: Emax means the greatest response seen or fitted, relative to the assay's reference.

Values taken from patent US10407381B2 (THE BOARD OF TRUSTEES OF THE UNIVERSITY OF ILLINOIS, priority 2015, dated 2019).
